Data: ChEMBL document CHEMBL1909046, “DrugMatrix in vitro pharmacology data”

Columns and labels:
[1] = biological target: T1, Alpha-1A adrenergic receptor (Rattus norvegicus, UniProt P43140); assay: DRUGMATRIX: Alpha-1A adrenergic receptor radioligand binding (ligand: prazosin); assay type: cell membranes, Wistar, Submaxillary gland, Membrane; details: Not Active = under 50% inhibition at 10 µM
T1 sequence (P43140 whole entry): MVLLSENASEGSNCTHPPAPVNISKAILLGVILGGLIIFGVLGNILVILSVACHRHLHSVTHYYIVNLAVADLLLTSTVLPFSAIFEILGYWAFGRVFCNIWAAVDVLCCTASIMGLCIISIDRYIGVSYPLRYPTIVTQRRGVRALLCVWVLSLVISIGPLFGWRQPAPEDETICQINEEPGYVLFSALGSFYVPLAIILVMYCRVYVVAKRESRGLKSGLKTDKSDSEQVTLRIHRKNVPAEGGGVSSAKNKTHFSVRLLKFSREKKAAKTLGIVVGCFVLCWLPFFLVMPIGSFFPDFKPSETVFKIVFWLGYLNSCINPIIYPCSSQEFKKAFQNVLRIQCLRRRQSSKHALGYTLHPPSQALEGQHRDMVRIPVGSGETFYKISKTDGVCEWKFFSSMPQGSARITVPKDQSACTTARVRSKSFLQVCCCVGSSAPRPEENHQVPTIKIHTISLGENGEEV

[2] = biological target: T2, Type-2 angiotensin II receptor (Homo sapiens, UniProt P50052); assay type: cell-based; details: cho-k1; also: in other assays of this panel Not Active means under 50% inhibition at 10 µM
T2 sequence (P50052 whole entry): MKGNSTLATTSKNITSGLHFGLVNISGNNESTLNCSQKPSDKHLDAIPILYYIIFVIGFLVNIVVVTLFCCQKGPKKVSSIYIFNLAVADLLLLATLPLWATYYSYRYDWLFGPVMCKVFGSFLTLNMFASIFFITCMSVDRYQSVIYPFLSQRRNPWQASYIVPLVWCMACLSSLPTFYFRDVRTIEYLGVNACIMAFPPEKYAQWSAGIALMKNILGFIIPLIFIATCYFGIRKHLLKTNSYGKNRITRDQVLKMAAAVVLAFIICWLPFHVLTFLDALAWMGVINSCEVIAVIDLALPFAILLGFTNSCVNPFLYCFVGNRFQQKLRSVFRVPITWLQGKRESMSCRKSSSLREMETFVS

[3] = biological target: Vascular endothelial growth factor receptor 1 (Homo sapiens, UniProt P17948); assay type: cell-based; details: huvec; also: in other assays of this panel Not Active means under 50% inhibition at 10 µM
[4] = biological target: T3, Vasoactive intestinal polypeptide receptor 1 (Homo sapiens, UniProt P32241); assay type: cell membranes, Membrane; details: ht-29; also: in other assays of this panel Not Active means under 50% inhibition at 10 µM
T3 sequence (P32241 whole entry): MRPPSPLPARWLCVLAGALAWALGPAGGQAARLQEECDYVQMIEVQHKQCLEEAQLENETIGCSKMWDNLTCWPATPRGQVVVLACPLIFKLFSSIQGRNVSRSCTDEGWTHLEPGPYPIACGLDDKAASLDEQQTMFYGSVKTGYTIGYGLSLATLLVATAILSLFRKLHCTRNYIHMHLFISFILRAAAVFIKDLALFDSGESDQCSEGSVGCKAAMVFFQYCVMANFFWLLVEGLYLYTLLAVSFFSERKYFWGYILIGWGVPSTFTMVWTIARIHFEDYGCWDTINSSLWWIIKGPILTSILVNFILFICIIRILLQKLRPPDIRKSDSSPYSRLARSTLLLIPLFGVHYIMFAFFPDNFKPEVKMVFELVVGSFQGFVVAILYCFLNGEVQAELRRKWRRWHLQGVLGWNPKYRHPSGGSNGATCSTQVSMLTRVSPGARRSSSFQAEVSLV

Carbonic anhydrase 2 = Carbonic anhydrase 2 (Homo sapiens, UniProt P00918); assay: DRUGMATRIX: Carbonic Anhydrase II enzyme inhibition (substrate: 4-Nitrophenyl acetate (4-NPA)); assay type: tissue-based, Erythrocyte; details: erythrocyte; Not Active = under 50% inhibition at 10 µM
[5] = biological target: T4, Neuropeptide Y receptor type 2 (Homo sapiens, UniProt P49146); assay type: cell membranes, Membrane; details: kan-ts; also: in other assays of this panel Not Active means under 50% inhibition at 10 µM
T4 sequence (P49146 whole entry): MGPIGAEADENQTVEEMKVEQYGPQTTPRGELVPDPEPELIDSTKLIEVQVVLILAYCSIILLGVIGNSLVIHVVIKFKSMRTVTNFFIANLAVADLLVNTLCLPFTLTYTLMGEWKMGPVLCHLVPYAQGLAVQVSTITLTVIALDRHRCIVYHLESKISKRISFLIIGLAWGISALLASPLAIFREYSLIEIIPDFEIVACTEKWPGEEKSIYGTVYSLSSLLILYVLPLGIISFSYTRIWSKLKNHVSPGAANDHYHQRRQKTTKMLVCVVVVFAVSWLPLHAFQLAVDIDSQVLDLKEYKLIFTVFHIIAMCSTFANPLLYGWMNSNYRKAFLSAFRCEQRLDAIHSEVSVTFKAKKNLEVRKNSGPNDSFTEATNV

[6] = biological target: Delta-type opioid receptor (Homo sapiens, UniProt P41143); assay type: cell membranes, HEK293, Membrane; details: hek293; also: in other assays of this panel Not Active means under 50% inhibition at 10 µM
Cytochrome P450 1A2 = biological target: T5, Cytochrome P450 1A2 (Homo sapiens, UniProt P05177); details: bti-tn-5b1-4; also: in other assays of this panel Not Active means under 50% inhibition at 10 µM
T5 sequence (P05177 whole entry): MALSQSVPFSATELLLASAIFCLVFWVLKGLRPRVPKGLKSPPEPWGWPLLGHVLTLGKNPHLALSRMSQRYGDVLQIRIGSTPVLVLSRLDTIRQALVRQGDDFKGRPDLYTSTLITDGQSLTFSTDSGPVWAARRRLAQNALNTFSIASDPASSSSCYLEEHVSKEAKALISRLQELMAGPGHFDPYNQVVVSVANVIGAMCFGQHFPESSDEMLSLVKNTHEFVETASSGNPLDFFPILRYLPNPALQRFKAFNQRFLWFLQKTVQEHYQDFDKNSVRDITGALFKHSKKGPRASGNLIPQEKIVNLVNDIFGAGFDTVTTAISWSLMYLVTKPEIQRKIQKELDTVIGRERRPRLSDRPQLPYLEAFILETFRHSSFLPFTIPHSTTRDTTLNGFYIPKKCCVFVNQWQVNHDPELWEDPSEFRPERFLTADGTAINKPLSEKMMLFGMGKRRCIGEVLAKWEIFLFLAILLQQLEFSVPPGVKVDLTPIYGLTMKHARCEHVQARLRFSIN

Sequence of Vascular endothelial growth factor receptor 1 (P17948 whole entry): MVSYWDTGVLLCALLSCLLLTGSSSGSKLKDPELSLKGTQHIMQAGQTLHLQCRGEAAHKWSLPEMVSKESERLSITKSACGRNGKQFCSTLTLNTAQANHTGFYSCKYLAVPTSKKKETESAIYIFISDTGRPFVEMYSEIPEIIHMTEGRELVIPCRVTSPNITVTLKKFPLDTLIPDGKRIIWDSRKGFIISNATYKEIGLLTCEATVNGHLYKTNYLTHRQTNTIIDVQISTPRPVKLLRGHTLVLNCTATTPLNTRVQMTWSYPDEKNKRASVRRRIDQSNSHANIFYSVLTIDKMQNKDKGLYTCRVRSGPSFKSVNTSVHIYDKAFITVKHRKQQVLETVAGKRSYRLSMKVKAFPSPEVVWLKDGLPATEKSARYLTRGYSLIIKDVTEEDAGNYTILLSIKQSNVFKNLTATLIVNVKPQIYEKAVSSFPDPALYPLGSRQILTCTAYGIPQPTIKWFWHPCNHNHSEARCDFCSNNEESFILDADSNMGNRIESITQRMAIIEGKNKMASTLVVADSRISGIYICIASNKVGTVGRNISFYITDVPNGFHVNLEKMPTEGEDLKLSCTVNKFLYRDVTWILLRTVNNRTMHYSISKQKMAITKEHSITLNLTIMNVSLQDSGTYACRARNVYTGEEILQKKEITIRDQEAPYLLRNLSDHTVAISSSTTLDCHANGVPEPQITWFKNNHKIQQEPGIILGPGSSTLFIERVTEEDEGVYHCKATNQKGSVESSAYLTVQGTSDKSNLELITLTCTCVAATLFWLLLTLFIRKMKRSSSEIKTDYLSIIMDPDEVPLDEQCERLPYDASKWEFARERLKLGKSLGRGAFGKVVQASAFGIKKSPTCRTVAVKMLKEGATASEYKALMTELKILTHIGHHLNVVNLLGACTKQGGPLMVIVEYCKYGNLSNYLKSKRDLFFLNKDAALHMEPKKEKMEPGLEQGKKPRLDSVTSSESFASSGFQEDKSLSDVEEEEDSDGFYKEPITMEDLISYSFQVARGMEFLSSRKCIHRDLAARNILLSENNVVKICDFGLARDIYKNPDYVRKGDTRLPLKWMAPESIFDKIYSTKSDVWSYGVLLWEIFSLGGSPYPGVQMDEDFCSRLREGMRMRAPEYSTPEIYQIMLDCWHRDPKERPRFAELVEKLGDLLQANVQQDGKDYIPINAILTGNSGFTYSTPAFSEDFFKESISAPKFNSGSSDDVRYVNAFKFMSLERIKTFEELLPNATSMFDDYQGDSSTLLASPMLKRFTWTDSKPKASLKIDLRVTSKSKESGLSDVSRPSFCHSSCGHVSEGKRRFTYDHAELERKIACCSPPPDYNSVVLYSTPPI
Sequence of Delta-type opioid receptor (P41143 whole entry): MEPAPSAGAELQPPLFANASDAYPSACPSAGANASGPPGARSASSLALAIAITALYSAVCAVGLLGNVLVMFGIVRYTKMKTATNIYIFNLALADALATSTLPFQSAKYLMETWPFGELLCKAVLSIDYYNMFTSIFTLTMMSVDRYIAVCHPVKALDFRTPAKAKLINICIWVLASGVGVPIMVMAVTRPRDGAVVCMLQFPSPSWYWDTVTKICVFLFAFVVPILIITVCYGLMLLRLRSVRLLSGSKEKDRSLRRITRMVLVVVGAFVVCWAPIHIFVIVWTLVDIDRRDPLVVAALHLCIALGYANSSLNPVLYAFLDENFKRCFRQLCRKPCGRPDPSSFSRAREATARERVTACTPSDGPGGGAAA

CC(C)(C#N)c1cc(Cn2cncn2)cc(C(C)(C)C#N)c1 [ANASTROZOLE]
Not Active: IC50 [1] | IC50 [2] | IC50 [3] | IC50 [4] | IC50 (Carbonic anhydrase 2) | IC50 [5] | IC50 [6] | IC50 (Cytochrome P450 1A2) | Ki (Cytochrome P450 1A2)

CC12CCC(CC1=O)C2(C)C (stereo unspecified) [CAMPHOR]
Not Active: IC50 [1] | IC50 [2] | IC50 [3] | IC50 [4] | IC50 (Carbonic anhydrase 2) | IC50 [5] | IC50 [6] | IC50 (Cytochrome P450 1A2) | Ki (Cytochrome P450 1A2)

CC12CCC(CC1)C(C)(C)O2 [EUCALYPTOL]
Not Active: IC50 [1] | IC50 [2] | IC50 [3] | IC50 [4] | IC50 (Carbonic anhydrase 2) | IC50 [5] | IC50 [6] | IC50 (Cytochrome P450 1A2) | Ki (Cytochrome P450 1A2)

Cc1ccnc2c1NC(=O)c1cccnc1N2C1CC1 [NEVIRAPINE]
Not Active: IC50 [1] | IC50 [2] | IC50 [3] | IC50 [4] | IC50 (Carbonic anhydrase 2) | IC50 [5] | IC50 [6] | IC50 (Cytochrome P450 1A2) | Ki (Cytochrome P450 1A2)

Clc1cc(Cl)c(OCC#CI)cc1Cl [HALOPROGIN]
Not Active: IC50 [1] | IC50 [2] | IC50 [3] | IC50 [4] | IC50 (Carbonic anhydrase 2) | IC50 [5] | IC50 [6] | IC50 (Cytochrome P450 1A2) | Ki (Cytochrome P450 1A2)

Oc1ccccc1 [PHENOL]
Not Active: IC50 [1] | IC50 [2] | IC50 [3] | IC50 [4] | IC50 (Carbonic anhydrase 2) | IC50 [5] | IC50 [6] | IC50 (Cytochrome P450 1A2) | Ki (Cytochrome P450 1A2)

CCCCCCNC(=O)n1cc(F)c(=O)[nH]c1=O [CARMOFUR]
Not Active: IC50 [1] | IC50 [2] | IC50 [3] | IC50 [4] | IC50 (Carbonic anhydrase 2) | IC50 [5] | IC50 [6] | IC50 (Cytochrome P450 1A2) | Ki (Cytochrome P450 1A2)

Nc1ccc(C(=O)O)c(O)c1 [AMINOSALICYLIC ACID]
Not Active: IC50 [1] | IC50 [2] | IC50 [3] | IC50 [4] | IC50 (Carbonic anhydrase 2) | IC50 [5] | IC50 [6] | IC50 (Cytochrome P450 1A2) | Ki (Cytochrome P450 1A2)

COc1cc(NC(C)CCCN)c2ncccc2c1 (stereo unspecified) [PRIMAQUINE]
Not Active: IC50 [1] | IC50 [2] | IC50 [3] | IC50 [4] | IC50 (Carbonic anhydrase 2) | IC50 [5] | IC50 [6]

Cc1cc(C(C)(C)C)c(O)c(C)c1CC1=NCCN1 [OXYMETAZOLINE]
Not Active: IC50 [2] | IC50 [3] | IC50 [4] | IC50 (Carbonic anhydrase 2) | IC50 [5] | IC50 [6] | IC50 (Cytochrome P450 1A2) | Ki (Cytochrome P450 1A2)

c1ccc2c(c1)Nc1ccccc1S2 [PHENOTHIAZINE]
Not Active: IC50 [1] | IC50 [2] | IC50 [3] | IC50 [4] | IC50 (Carbonic anhydrase 2) | IC50 [5] | IC50 [6]

CC(CN1c2ccccc2Sc2ccccc21)N(C)C (stereo unspecified) [PROMETHAZINE]
Not Active: IC50 [2] | IC50 [3] | IC50 [4] | IC50 (Carbonic anhydrase 2) | IC50 [5] | IC50 [6] | IC50 (Cytochrome P450 1A2) | Ki (Cytochrome P450 1A2)

c1ccc(Cn2ccnc2)cc1
Not Active: IC50 [1] | IC50 [2] | IC50 [3] | IC50 [4] | IC50 (Carbonic anhydrase 2) | IC50 [5] | IC50 [6]

CC(=O)Nc1ccc2c(c1)Cc1ccccc1-2 [2-ACETYLAMINOFLUORENE]
Not Active: IC50 [1] | IC50 [2] | IC50 [3] | IC50 [4] | IC50 (Carbonic anhydrase 2) | IC50 [5] | IC50 [6]

NS(=O)(=O)c1cc(C(=O)O)c(NCc2ccco2)cc1Cl [FUROSEMIDE]
Not Active: IC50 [1] | IC50 [2] | IC50 [3] | IC50 [4] | IC50 [5] | IC50 [6]

O=c1[nH]c2ccccc2c2ccccc12
Not Active: IC50 [1] | IC50 [2] | IC50 [3] | IC50 [4] | IC50 (Carbonic anhydrase 2) | IC50 [5] | IC50 [6]

C=CCN1CC[C@]23c4c5ccc(O)c4O[C@H]2/C(=N/N=C2\CC[C@@]4(O)[C@H]6Cc7ccc(O)c8c7[C@@]4(CCN6CC=C)[C@H]2O8)CC[C@@]3(O)[C@H]1C5 [NALOXONAZINE]
Not Active: IC50 [1] | IC50 [2] | IC50 [3] | IC50 [4] | IC50 (Carbonic anhydrase 2) | IC50 [5] | IC50 (Cytochrome P450 1A2) | Ki (Cytochrome P450 1A2)

CC(N)Cc1c[nH]c2ccc(OCc3cccs3)cc12 (stereo unspecified) [BW-723C86]
Not Active: IC50 [1] | IC50 [2] | IC50 [3] | IC50 [4] | IC50 (Carbonic anhydrase 2) | IC50 [5] | IC50 [6]

CCN(CCO)CCCC(C)Nc1ccnc2cc(Cl)ccc12 (stereo unspecified) [HYDROXYCHLOROQUINE]
Not Active: IC50 [1] | IC50 [2] | IC50 [3] | IC50 [4] | IC50 (Carbonic anhydrase 2) | IC50 [5] | IC50 [6]

CC(C)NCC(O)COc1ccc(CC(N)=O)cc1 (stereo unspecified) [ATENOLOL]
Not Active: IC50 [1] | IC50 [2] | IC50 [3] | IC50 [4] | IC50 (Carbonic anhydrase 2) | IC50 [5] | IC50 [6]

CNC[C@H](O)c1ccc(O)c(O)c1 [EPINEPHRINE]
Not Active: IC50 [2] | IC50 [3] | IC50 [4] | IC50 (Carbonic anhydrase 2) | IC50 [5] | IC50 [6] | IC50 (Cytochrome P450 1A2) | Ki (Cytochrome P450 1A2)

O=C(O)CNCP(=O)(O)O [GLYPHOSATE]
Not Active: IC50 [1] | IC50 [2] | IC50 [3] | IC50 [4] | IC50 (Carbonic anhydrase 2) | IC50 [5] | IC50 [6]

COc1ccccc1OCCNCC(O)COc1cccc2[nH]c3ccccc3c12 (stereo unspecified) [CARVEDILOL]
Not Active: IC50 [2] | IC50 [3] | IC50 [4] | IC50 (Carbonic anhydrase 2) | IC50 [5] | IC50 [6] | IC50 (Cytochrome P450 1A2) | Ki (Cytochrome P450 1A2)
